Series [1] is described as follows: Half-life was measured at the concentration of 2.0 mg/kg in rabbit blood sample. The series is classed as ADME, organism-based, Oryctolagus cuniculus. On the set-up: dose 2 mg/kg.
Series [2] can be described thus: Clearance was measured at the concentration of 2.0 mg/kg in rabbit blood sample. More on the design: dose 2 mg/kg. The series is classed as ADME, organism-based, Oryctolagus cuniculus.
Series [3] addresses T1, Coagulation factor VII (Homo sapiens, UniProt P08709).
T1 sequence (P08709 whole entry): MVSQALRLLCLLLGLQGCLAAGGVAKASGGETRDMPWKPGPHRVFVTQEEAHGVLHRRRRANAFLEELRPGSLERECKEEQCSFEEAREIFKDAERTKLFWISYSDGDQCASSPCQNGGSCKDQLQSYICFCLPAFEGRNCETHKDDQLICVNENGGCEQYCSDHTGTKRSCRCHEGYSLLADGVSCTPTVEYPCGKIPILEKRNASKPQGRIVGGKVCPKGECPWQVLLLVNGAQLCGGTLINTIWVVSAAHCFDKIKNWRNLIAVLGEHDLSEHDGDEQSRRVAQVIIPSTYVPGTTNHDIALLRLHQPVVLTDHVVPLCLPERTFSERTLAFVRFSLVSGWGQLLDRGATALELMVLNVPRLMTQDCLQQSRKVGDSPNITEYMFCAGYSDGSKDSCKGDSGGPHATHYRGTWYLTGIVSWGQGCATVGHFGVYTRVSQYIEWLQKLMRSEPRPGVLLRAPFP
The series is described as follows: Inhibitory activity for the compound against coagulation factor VIIa in presence of 1% ovalbumin.

The next series addresses Albumin (Homo sapiens, UniProt P02768). Briefly: Compound was measured for its retention time in human serum albumin;where k`=tt-t0/t0; tt=retention time of compound and t0=retention time of DMSO.
Series [4] concerns the target T1, Coagulation factor VII. The series is described as follows: Inhibitory activity for the compound against coagulation factor VIIa in presence of 0.1% human serum albumin.
Series [5] concerns the target T1, Coagulation factor VII. The series is described as follows: Inhibitory activity for the compound against coagulation factor VIIa in presence of 0.1% rabbit serum albumin.
The nature of series [6]: Half-life was measured at the concentration of 1.11 mg/kg in rabbit blood sample. The format is ADME, organism-based, Oryctolagus cuniculus. On the set-up: dose 1.11 mg/kg.
Series [7] in a line: Clearance was measured at the concentration of 1.11 mg/kg in rabbit blood sample. More on the design: dose 1.11 mg/kg. The series is classed as ADME, organism-based, Oryctolagus cuniculus.

Structures are written as SMILES. Where a SMILES comes first, the peptide text is derived from it. Bridges are numbered along the chain shown (N, C = ends). The star is where a group is joined. X3 = O=C(CCCCCOP(=O)(O)OC1CCC(c2ccccc2)(c2ccccc2)CC1)*; X4 = O=C(CCC(=O)*)NS(=O)(=O)c1ccc2ccccc2c1; X2 = O=C(CCCCCOP(=O)(O)Oc1ccc2ccccc2c1)*; X1 = O=C(CCCCCOP(=O)(O)OCCCCCc1ccccc1)*

We go through five compounds from ChEMBL document CHEMBL1136423, “Phosphate ester serum albumin affinity tags greatly improve peptide half-life in vivo” (Bioorg Med Chem Lett, 2003).

Sequence of Albumin (P02768 whole entry): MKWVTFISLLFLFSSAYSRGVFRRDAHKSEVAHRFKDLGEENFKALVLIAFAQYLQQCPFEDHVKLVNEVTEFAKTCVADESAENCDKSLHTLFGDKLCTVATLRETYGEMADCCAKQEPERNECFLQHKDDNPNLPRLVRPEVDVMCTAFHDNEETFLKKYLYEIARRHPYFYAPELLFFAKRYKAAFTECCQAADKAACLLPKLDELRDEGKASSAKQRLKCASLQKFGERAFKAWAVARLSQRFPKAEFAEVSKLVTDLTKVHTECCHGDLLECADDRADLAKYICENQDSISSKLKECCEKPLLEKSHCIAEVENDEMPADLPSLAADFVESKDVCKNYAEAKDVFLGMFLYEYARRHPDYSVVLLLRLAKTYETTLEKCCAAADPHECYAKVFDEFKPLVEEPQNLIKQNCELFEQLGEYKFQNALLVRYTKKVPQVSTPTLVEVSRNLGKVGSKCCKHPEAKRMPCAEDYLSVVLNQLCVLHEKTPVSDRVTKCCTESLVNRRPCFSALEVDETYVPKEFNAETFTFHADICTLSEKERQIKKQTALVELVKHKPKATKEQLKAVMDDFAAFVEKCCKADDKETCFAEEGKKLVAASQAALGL

In general, half-life refers to the time in which the quantity being followed falls by half. Read a high half-life as slow loss. The clearance is a measure of how efficiently the substance is removed, as volume per time. What is called IC50 is the concentration that inhibits the measured activity by half. In series [1], `CC[C@H](C)[C@@H]1NC(=O)[C@H](CCCN=C(N)N)NC(=O)[C@@H]2CCCN2C(=O)[C@H](CC(N)=O)NC(=O)[C@H](CC(=O)O)NC(=O)[C@@H](NC(=O)[C@H](CC(C)C)NC(=O)[C@H](C)NC(=O)CCCCCOP(=O)(O)OC2CCC(c3ccccc3)(c3ccccc3)CC2)CSSC[C@@H](C(=O)N[C@@H](CCC(N)=O)C(=O)N[C@@H](Cc2ccccc2)C(=O)N[C@H](C(=O)N[C@@H](CCC(=O)O)C(=O)NCC(N)=O)C(C)C)NC(=O)[C@H](Cc2ccc(O)cc2)NC(=O)[C@H](Cc2c[nH]c3ccccc23)NC(=O)[C@H](CCCN=C(N)N)NC(=O)[C@H](CC(=O)O)NC1=O` (X3-ALCDNPRIDRWYCQFVEG-NH2; disulfide 3-13) had a half-life of 222 min. Besides, the clearance in series [2] came out at 0.185 mL/min/kg. The IC50 was 4 nM on Coagulation factor VII [3], 3.4 nM at Coagulation factor VII [4] and 90 nM at Coagulation factor VII [5]. For the same compound, at Albumin, the “k'/k'+1” value is on record as 0.78.

Regarding `CC[C@H](C)[C@@H]1NC(=O)[C@H](CCCN=C(N)N)NC(=O)[C@@H]2CCCN2C(=O)[C@H](CC(N)=O)NC(=O)[C@H](CC(=O)O)NC(=O)[C@@H](NC(=O)[C@H](CC(C)C)NC(=O)[C@H](C)NC(=O)CCCCCOP(=O)(O)OCCCCCc2ccccc2)CSSC[C@@H](C(=O)N[C@@H](CCC(N)=O)C(=O)N[C@@H](Cc2ccccc2)C(=O)N[C@H](C(=O)N[C@@H](CCC(=O)O)C(=O)NCC(N)=O)C(C)C)NC(=O)[C@H](Cc2ccc(O)cc2)NC(=O)[C@H](Cc2c[nH]c3ccccc23)NC(=O)[C@H](CCCN=C(N)N)NC(=O)[C@H](CC(=O)O)NC1=O` (X1-ALCDNPRIDRWYCQFVEG-NH2; disulfide 3-13), the half-life in series [1] is 79.1 min. In series [2], this compound displayed a clearance of 0.505 mL/min/kg. Besides, the IC50 on Coagulation factor VII [3] amounted to 2 nM; on Coagulation factor VII [4] it was 2.4 nM; on Coagulation factor VII [5] it was 22 nM. Moreover, on Albumin, the “k'/k'+1” value is recorded as 0.92.

In the case of `CC[C@H](C)[C@@H]1NC(=O)[C@H](CCCN=C(N)N)NC(=O)[C@@H]2CCCN2C(=O)[C@H](CC(N)=O)NC(=O)[C@H](CC(=O)O)NC(=O)[C@@H](NC(=O)[C@H](CC(C)C)NC(=O)[C@H](C)NC(C)=O)CSSC[C@@H](C(=O)N[C@@H](CCC(N)=O)C(=O)N[C@@H](Cc2ccccc2)C(=O)N[C@H](C(=O)N[C@@H](CCC(=O)O)C(=O)NCC(N)=O)C(C)C)NC(=O)[C@H](Cc2ccc(O)cc2)NC(=O)[C@H](Cc2c[nH]c3ccccc23)NC(=O)[C@H](CCCN=C(N)N)NC(=O)[C@H](CC(=O)O)NC1=O` (Ac-ALCDNPRIDRWYCQFVEG-NH2; disulfide 3-13), in series [6], the half-life was 4.18 min. The clearance in series [7] was 26.8 mL/min/kg. Also, the IC50 on Coagulation factor VII [3] worked out at 9.2 nM; on Coagulation factor VII [4] it was 11 nM; at Coagulation factor VII [5] it was 9.7 nM. Further, at Albumin, the “k'/k'+1” value is 0.21.

Turning to `CC[C@H](C)[C@@H]1NC(=O)[C@H](CCCN=C(N)N)NC(=O)[C@@H]2CCCN2C(=O)[C@H](CC(N)=O)NC(=O)[C@H](CC(=O)O)NC(=O)[C@@H](NC(=O)[C@H](CC(C)C)NC(=O)[C@H](C)NC(=O)CCC(=O)NS(=O)(=O)c2ccc3ccccc3c2)CSSC[C@@H](C(=O)N[C@@H](CCC(N)=O)C(=O)N[C@@H](Cc2ccccc2)C(=O)N[C@H](C(=O)N[C@@H](CCC(=O)O)C(=O)NCC(N)=O)C(C)C)NC(=O)[C@H](Cc2ccc(O)cc2)NC(=O)[C@H](Cc2c[nH]c3ccccc23)NC(=O)[C@H](CCCN=C(N)N)NC(=O)[C@H](CC(=O)O)NC1=O` (X4-ALCDNPRIDRWYCQFVEG-NH2; disulfide 3-13), the half-life in series [1] was 30 min. In series [2], the clearance stood at 1.64 mL/min/kg. Besides, the concentration for half-maximal inhibition (IC50) stood at 3.6 nM at Coagulation factor VII [3], 2.5 nM on Coagulation factor VII [4] and 24 nM at Coagulation factor VII [5]. Besides, the “k'/k'+1” value at Albumin came out at 0.97.

The compound `CC[C@H](C)[C@@H]1NC(=O)[C@H](CCCN=C(N)N)NC(=O)[C@@H]2CCCN2C(=O)[C@H](CC(N)=O)NC(=O)[C@H](CC(=O)O)NC(=O)[C@@H](NC(=O)[C@H](CC(C)C)NC(=O)[C@H](C)NC(=O)CCCCCOP(=O)(O)Oc2ccc3ccccc3c2)CSSC[C@@H](C(=O)N[C@@H](CCC(N)=O)C(=O)N[C@@H](Cc2ccccc2)C(=O)N[C@H](C(=O)N[C@@H](CCC(=O)O)C(=O)NCC(N)=O)C(C)C)NC(=O)[C@H](Cc2ccc(O)cc2)NC(=O)[C@H](Cc2c[nH]c3ccccc23)NC(=O)[C@H](CCCN=C(N)N)NC(=O)[C@H](CC(=O)O)NC1=O` (X2-ALCDNPRIDRWYCQFVEG-NH2; disulfide 3-13) showed a half-life in series [1] of 34.8 min. Besides, the clearance in series [2] worked out at 0.707 mL/min/kg. For the same compound, the concentration for half-maximal inhibition (IC50) was found to be 1.9 nM at Coagulation factor VII [3], 2 nM at Coagulation factor VII [4] and 9.2 nM on Coagulation factor VII [5]. Moreover, the “k'/k'+1” value at Albumin turned out to be 0.92.
